Measured values from patent publication US20110319495A1, “Pharmaceutical Composition for Hepatitis Treatment and Applications” (priority 2010, published 2011).

Assays:
HepG2 cells [1] = experiment: Glutathione content in alcohol-treated HepG2 cells; assay type: cell-based, human; settings: lucidone 1, 5, 10 μg/ml or curcumin 10 μg/ml, 1 h before 100 mM alcohol for 24 h
Procedure: A currently available GSH-96-well plate colorimetric GSH assay kit, Oxis International, Foster City, Calif., USA) is used to measure the content of glutathione (GSH). In brief, 40 μl chromogenic reagent dissolved in acid is added into 40 μl non-protein hepatocyte lysate, and added with 40 μl NaOH (30%), 40 μl color developer and buffer solution to form a mixed solution. Next, the mixed solution is shaken gently, and placed in room temperature for 10 m. Finally, a spectrometer (ELISA microplate reader, μQuant, Bio-Tek instruments, Inc., Winooski, Vt., USA) is used to detect the absorbance at wavelength 412 nm, and compared with a GSH absorbance curve of known concentration to judge the content of GSH. Similarly, the content of glutathione in the experimental mouseserum can be measured.

HepG2 cells [2] = experiment: Lipid peroxidation degree (MDA) in alcohol-treated HepG2 cells; assay type: cell-based, human; settings: lucidone 1, 5, 10 μg/ml or curcumin 10 μg/ml, 1 h before 100 mM alcohol for 24 h
HO-1 [3] = experiment: HO-1 mRNA expression in HepG2 cells (real-time PCR); assay type: cell-based, human; settings: lucidone 1, 5, 10 μg/ml or curcumin 10 μg/ml, with 100 mM alcohol, standardized to β-actin
Procedure: Trizol reagent (Invitrogen Life Technologies, Carlsbad, Calif., USA) is used to extract total RNA of cells. One step RT-PCR is used for reverse transcription of mRNA of HO-1 and β-actin into cDNA, then real time-PCR (Applied Biosystems) is applied to real-time expression of HO-1 and β-actin.
Said real-time PCR is used to detect PCR products by combining DNA and SYBR Green. The thermal cycle is: 3 m at 96° C.; 1 m at 96° C. in 40 cycles, 30 s at 50° C. and 90 s at 72° C.

HO-1 [4] = experiment: HO-1 protein expression in HepG2 cells (Western blotting); assay type: cell-based, human; settings: lucidone 1, 5, 10 μg/ml or curcumin 10 μg/ml, with 100 mM alcohol
nitric oxide = experiment: Griess nitrite test, nitric oxide generation in alcohol-treated HepG2 cells; assay type: cell-based, human; settings: 1, 5, 10 μg/ml, 1 h before 100 mM alcohol for 24 h; dose-dependent; effect equivalent to curcumin 10 μg/ml
Procedure: (§1) According to the principle of Griess reaction, nitrite accumulated from the supernatant liquid cultivated by cells and mouse serum is measured to obtain indirectly the generation of nitric oxide. The supernatant liquid cultivated by cells and tumor necrosis factor-α in the serum are measured using the currently available human TNF-αELISA kit. In brief, aforementioned HepG2 cells of […] are separately cultivated in 96-well plate, and then added with lucidone and alcohol to cultivate them for 24 h. Next, the culture solution is diluted by the work reagent of aforementioned kit by a percentage of 1:2. Then, every 100 μl diluted culture solution is subject to ELISA reaction as per the operating instruction of aforementioned kit, and then a spectrometer is used to detect the absorbance at wavelength 450 nm so as to judge the content of tumor necrosis factor-α; in the mouse experiment, the mouse serum is diluted properly and then the content of tumor necrosis factor-α is tested as per the operating instruction of aforementioned kit. […]
The content of reactive oxygen species and nitric oxide in the tested culture solution of HepG2 cells is measured (refer to preferred embodiment 1 [Test of accumulation of reactive oxygen species in cells] and [Griess nitrite test]). […]

tumor necrosis factor-α = experiment: Content of TNF-α in culture solution of alcohol-treated HepG2 cells (ELISA); assay type: cell-based, human; settings: 1, 5, 10 μg/ml, 1 h before 100 mM alcohol for 24 h; dose-dependent; effect equivalent to curcumin 10 μg/ml
Procedure: as §1
(§2) The content of ALT, AST and tumor necrosis factor-α (TNF-α) in the tested culture solution of HepG2 cells is measured (refer to preferred embodiment 1 [test of ALT and AST concentration] and [measurement of tumor necrosis factor-α ]).

[5] = system: mouse suffered by hepatitis arising from alcohol; experiment: Content of GSH and MDA in serum and tissue, mouse model of hepatitis arising from alcohol; assay type: in vivo; settings: lucidone 100 mg/Kg/day i.p. 7 d, mean ± SD; for GSH in tissue / MDA in tissue: liver tissue
Text: (§3) The experimental mouse is selected from 4-week male mouse of ICR family (25±5 g) in Charles River (Taipei, Taiwan). Prior to the experiment, the experimental mouse will be bred for at least 1 week in constant temperature lab conditions wherein unlimited feedstock and water are supplied. All animals shall be governed by the Guide for the Care and Use of Laboratory Animals and relevant animal protection acts of Taiwan, and approved by local ethics commissions. 80% alcohol or lucidone is applied to aforementioned experimental mouse (1 mL/Kg) by following methods: alcohol is applied orally, or by intra-peritoneal injection, or alcohol and lucidone are applied orally, or by intra-peritoneal injection.
A currently available lipid peroxidation test kit (Oxford Biomedical Research, Oxford, Mich., USA) is used to measure the degree of lipid peroxidation. In brief, the cells are lysed by 200 μl cell lysis buffer. Then, 140 μl cell lysate is mixed with 455 μl N-methyl-2-phenylindole dissolved in acetonitrile and 105 μl acid (HCL, 37%), and placed in 45° C. for 60 m. malondialdehyde (MDA) is a main product of polyunsaturated fatty acid lysed by peroxidation. In this experiment, N-methyl-2-phenylindole is used to generate stable chromophore through reaction with MDA, and the formation of MDA is measured under maximum absorbance wavelength 535 nm as an index of measuring lipid peroxidation. Similarly, the degree of lipid peroxidation in the serum of experimental mouse can be measured.
A currently available GSH-96-well plate colorimetric GSH assay kit, Oxis International, Foster City, Calif., USA) is used to measure the content of glutathione (GSH). In brief, 40 μl chromogenic reagent dissolved in acid is added into 40 μl non-protein hepatocyte lysate, and added with 40 μl NaOH (30%), 40 μl color developer and buffer solution to form a mixed solution. Next, the mixed solution is shaken gently, and placed in room temperature for 10 m. […] Similarly, the content of glutathione in the experimental mouseserum can be measured.
(§4) The aforementioned mouse are grouped and then applied with lucidone for 7 d at a dose of 100 mg/Kg/day by means of intra-peritoneal injection, and at the 7th day, applied with lucidone and then applied with 80% alcohol orally or by intra-peritoneal injection at a dose of 1 ml/Kg, one time every 12 h with 3 doses; of which, the mouse of the control group is fed with 1% DMSO dissolved in saline solution.
Take out the serum and liver tissue of mouse suffered by hepatitis arising from alcohol as per aforementioned experimental design, and measure GSH content and lipid peroxidation degree as per the experimental methods in preferred embodiment 1.

reactive oxygen species = experiment: Accumulation of reactive oxygen species in alcohol-treated HepG2 cells (DCF-DA); assay type: cell-based, human; settings: 1, 5, 10 μg/ml, 1 h before 100 mM alcohol for 24 h; dose-dependent; effect equivalent to curcumin 10 μg/ml
Procedure: A currently available DCF-DA (dihydrodichloro-fluorescein diacetate; Sigma, USA) is used to monitor the accumulation of reactive oxygen species (ROS) in cells. In brief, the cells (1×10^7) are wetted by phosphate buffer solution, and then added into 10 μm DCF-DA for 4 h cultivation at 37° C., and then fluorescence spectrophotometer is used to measure the fluorescence (488 nm/530 nm).
(§5) The aforementioned HepG2 cells cultivated normally are grouped, and then separately cultivated 1 h together with 0, 1, 5, 10 μg/ml lucidone (0 μg/ml, negative control group) or 10 μg/ml curcumin (curcumin, a known antioxidation compound, taken as a positive control group), and then alcohol (100 mM) is added for 24 h cultivation to stimulate oxidation stress. The experiment groups and control groups are configured in Table 1:
The content of reactive oxygen species and nitric oxide in the tested culture solution of HepG2 cells is measured (refer to preferred embodiment 1 [Test of accumulation of reactive oxygen species in cells] and [Griess nitrite test]).
FIG. 3A depicts the content of reactive oxygen species of HepG2 cells in various groups, of which the fluorescence strength of DCF-DA indicates the content of reactive oxygen species. FIG. 3B depicts the generation of nitric oxide of HepG2 cells in various groups, of which nitrite generation indicates the generation of nitric oxide.

HepG2 cells [6] = experiment: Content of ALT and AST in culture solution of alcohol-treated HepG2 cells; assay type: cell-based, human; settings: 1, 5, 10 μg/ml, 1 h before 100 mM alcohol for 24 h; dose-dependent; effect equivalent to curcumin 10 μg/ml
Procedure: (§6) A currently available test kit (Randox Laboratories, Antrim, UK) is applied to test the concentration of culture solution after cultivation of HepG2 cells as well as the concentration of ALT and AST in mouse serum. In brief, the experiment is designed to obtain the culture solution after cultivation of HepG2 cells and the serum of experimental mouse by the recommended test procedures.
as §5, §2

[7] = system: mouse suffered by hepatitis arising from alcohol; experiment: Content of ALT, AST, nitric oxide and TNF-α in serum, mouse model of hepatitis arising from alcohol; assay type: in vivo; settings: lucidone 100 mg/Kg/day i.p. 7 d, mean ± SD
Text: as §3, §6
According to the principle of Griess reaction, nitrite accumulated from the supernatant liquid cultivated by cells and mouse serum is measured to obtain indirectly the generation of nitric oxide. The supernatant liquid cultivated by cells and tumor necrosis factor-α in the serum are measured using the currently available human TNF-αELISA kit. In brief, aforementioned HepG2 cells of […] are separately cultivated in 96-well plate, and then added with lucidone and alcohol to cultivate them for 24 h. Next, the culture solution is diluted by the work reagent of aforementioned kit by a percentage of 1:2. Then, every 100 μl diluted culture solution is subject to ELISA reaction as per the operating instruction of aforementioned kit, and then a spectrometer is used to detect the absorbance at wavelength 450 nm so as to judge the content of tumor necrosis factor-α; in the mouse experiment, the mouse serum is diluted properly and then the content of tumor necrosis factor-α is tested as per the operating instruction of aforementioned kit.
as §4
Take out the serum of mouse suffered by hepatitis arising from alcohol as per aforementioned experimental design, and determine the content of ALT, AST, nitric oxide and TNF-α by the experimental methods in preferred embodiment 1.

Nrf-2 = Nrf-2 translocation in HepG2 cells (Western blotting of cytoplasm and nuclear extracts); assay type: cell-based, human; settings: 1, 5, 10 μg/ml with 100 mM alcohol
Procedure: The cytosolic extracts and nuclear extracts are prepared as per the known test procedures using the currently available test kit (protocol #78833 Nuclear and Cytoplasmic Extraction Reagent kit). And, the common protein assay reagent (Bio-Rad) is used to measure the concentration of protein.
Western blotting is implemented as per the known test procedures in the relevant field, of which said anti-body and enhanced chemiluminescene regents (ECL, Pierce) are used for immunoblotting, and then an imaging device (Viogene Biotek, Sunnyvale, Calif., USA) is used for observing the results.
as §5, with “The experiment groups and control groups are configured in Table 1:” left out
HO-1 is one of ARE-driven antioxidant genes. […] In this experiment, the content of Nrf-2 in cytoplasm and nuclear extracts of tested HepG2 cells, as well as the bonding activity of Nrf-2 and ARE is measured (refer to relevant experimental methods in preferred embodiment 1).
Said content refers to the color strength of the result from Western blotting calculated by typical software in the field.

Nrf-2 and ARE = experiment: Bonding activity of Nrf-2 and ARE in HepG2 cells (EMSA); assay type: cell-based, human; settings: 1, 5, 10 μg/ml with 100 mM alcohol, dose-dependent
[8] = intra-peritoneal injection alcohol
[9] = intra-peritoneal injection alcohol (80%, 1 ml/Kg, 3 doses every 12 h)
[10] = orally taking alcohol (80%, 1 ml/Kg, 3 doses every 12 h)

COc1cc(/C=C/C(=O)CC(=O)/C=C/c2ccc(O)c(OC)c2)ccc1O [curcumin, reference compound]
decline of GSH concentration in the cells caused by alcohol (HepG2 cells [1]): can be avoided | lipid peroxidation in the cells caused by alcohol (HepG2 cells [2]): reduce greatly | expression of HO-1 mRNA in the cells (HO-1 [3]): substantial increase | expression of HO-1 protein in the cells (HO-1 [4]): substantial increase

COC1=CC(=O)C(=C(O)/C=C/c2ccccc2)C1=O [lucidone]
generation of nitric oxide caused by alcohol (nitrite) (nitric oxide): reduced the generation | content of TNF-α in cell culture solution (tumor necrosis factor-α): reduced the phenomenon of growing content | decline of GSH concentration in the cells caused by alcohol (HepG2 cells [1]): can be avoided | lipid peroxidation in the cells caused by alcohol (HepG2 cells [2]): reduce greatly | expression of HO-1 mRNA in the cells (HO-1 [3]): substantial increase | expression of HO-1 protein in the cells (HO-1 [4]): substantial increase | GSH in tissue [5, 8]: 173.9 ± 58.5 nmol/mg of protein | MDA in tissue [5, 8]: 20.9 ± 0.71 nmol/mg of protein | GSH in serum [5, 8]: 42.9 ± 1.8 nmol/mg of protein | MDA in serum [5, 8]: 16.2 ± 0.77 nmol/mg of protein | GSH in tissue ([5]; orally taking alcohol): 261.2 ± 11.1 nmol/mg of protein | MDA in tissue ([5]; orally taking alcohol): 69.2 ± 0.67 nmol/mg of protein | GSH in serum ([5]; orally taking alcohol): 30.5 ± 1.0 nmol/mg of protein | MDA in serum ([5]; orally taking alcohol): 19.5 ± 0.41 nmol/mg of protein | generation of reactive oxygen species caused by alcohol (reactive oxygen species): reduced the generation | content of ALT in cell culture solution (HepG2 cells [6]): reduced the phenomenon of growing content | content of AST in cell culture solution (HepG2 cells [6]): reduced the phenomenon of growing content | ALT in serum [7, 9]: 103.0 ± 65.6 U/L | AST in serum [7, 9]: 139.6 ± 12.2 U/L | TNF-α in serum [7, 9]: 3.91 ± 0.28 ng/mL | nitric oxide in serum [7, 9]: 102.3 ± 0.52 nM/mL | ALT in serum [7, 10]: 875.4 ± 57.2 U/L | AST in serum [7, 10]: 508.0 ± 31.7 U/L | TNF-α in serum [7, 10]: 10.0 ± 0.28 ng/mL | nitric oxide in serum [7, 10]: 370.6 ± 0.53 nM/mL | Nrf-2 translocation (Nrf-2 content in nucleus) (Nrf-2): facilitate Nrf-2 translocation | bonding activity of Nrf-2 and ARE (Nrf-2 and ARE): improve significantly the bonding activity
